Measurements published in PMC8330757, “Design and characterisation of piperazine-benzofuran integrated dinitrobenzenesulfonamide as Mycobacterium tuberculosis H37Rv strain inhibitors” (Journal of Enzyme Inhibition and Medicinal Chemistry, 2021).
In brackets after ≈: the same amount, converted by molar mass. Where two headings read alike, the source gives them in different places.

What was measured:
[1] = DPPH radical scavenging assay; conditions: absorbance at 517 nm after 30 min
Procedure: In TB, oxidative stress may result in tissue inflammation due to anti-TB drugs. The synthesised compounds have shown promising anti-TB activity and have the potential to develop as lead compounds. Therefore, it is necessary to evaluate the synthesised compounds for their antioxidant activity. Antioxidant activities of the synthesised compounds were measured using 2,2-diphenyl-1-picrylhydrazyl (DPPH) radical scavenging assay. DPPH radical scavenging activity is the most commonly used method for screening the antioxidant activities of the various natural as well as synthetic antioxidants. A lower IC50 value indicates greater antioxidant activity. […]
(§1) completion of starting material and formation of polar spot. The reaction mixture was concentrated to dry to give 7a-7d, used directly in next step.
(§2) 1.2. In-vitro Mtb MABA assay
(§3) Briefly, the inoculum was prepared from fresh LJ medium re -suspended in 7H9-S medium (7H9 broth, 0.1% casitone, 0.5% glycerol, supplemented oleic acid, albumin, dextrose, and catalase [OADC]), adjuste d to an OD590 1.0, and diluted 1:20; 100 µl was used as inoculum. Each drug stock solution was thawed and diluted in 7H9 -S at four-fold the final highest concentration tested. Serial two-fold dilutions of each drug were prepared directly in a sterile 96 -well microtiter plate using 100 µl 7H9 -S. A growth control containing no antibiotic and a sterile control were also prepared on each plate. Sterile water was added to all perimeter wells to avoid evaporation during the incubation. The plate was covered, seal ed in plastic bags and incubated at 37 °C in normal atmosphere. After 7 days incubation, 30 µl of Alamar blue solution was added to each well, and the plate was re -incubated overnight. A change in colour from blue (oxidised state) to pink (reduced) indicat ed the growth of bacteria, and the MIC was defined as the lowest concentration of drug that prevented this change in colour. […]
(§4) the concentration of […]. After 72 h of exposure, viability was assessed on the basis of cellular conversion of MTT into a formazan product using the Promega Cell Titer 96 non - radioactive cell proliferation assay.
(§5) 1.4. DPPH radical scavenging activity
(§6) The hydrogen atom or electron donation ability of some compounds were measured from the bleaching of the purple colored methanol solution of […] (DPPH). The spectrophotometric assay uses the stable radical DPPH as a reagent. 1 mL of various concentrations of the test compounds (5, 10, 25, 50 and 100 μg/mL) in methanol was added to 4 mL of 0.004% (w/v) methanol solution of DPPH. The reaction mixture was incubated at 37 °C.
(§7) The scavenging activity on DPPH was determined by measuring the absorbance at 517 nm after 30 min. All tests were performed in triplicate and the mean values were entered. The percent of inhibition (I %) of free radical production from DPPH was calculated by the following equation % of scavenging = [(A control – A sample)/ […]]. Where, A control is the […]

Mtb H37Rv (ATCC27294) = test: In vitro anti-TB activity (MIC) against Mtb H37Rv; assay type: cell-based, Mycobacterium tuberculosis; conditions: for MIC: Mycobacterium tuberculosis, read-out: Anti-TB (MIC)
[2] = In vitro cytotoxicity, MTT assay; assay type: cell-based, human; conditions: human, A549 cells, read-out: Human cell lines A549 IC50 approximation
Procedure: (§8) The safety profile of the active hybrids was also accessed by testing in vitro cytotoxicity against human cell-line A549 cells at 50 μg/mL concentration by (4,5-dimethylthiazol-2-yl)-2,5-diphenyltetrazolium bromide (MTT) assay. […]
as §1, §2, §3, §4, §5, §6, §7

[3] = system: human cell-line A549 cells; test: In vitro cytotoxicity, MTT assay; assay type: cell-based; conditions: 50 μg/mL, 72 h exposure
Procedure: as §8, §1, §2, §3, §4, §5, §6, §7

[4] = Mtb H37Rv, most active compounds tested in triplicates

| Structure (SMILES) | DPPH IC50 [1] | Anti-TB (MIC) (Mtb H37Rv (ATCC27294); [4]) | MIC (Mtb H37Rv (ATCC27294)) | IC50 at 72 h [2] | % Cell inhibition at 50 μg/mL [3] | MIC (Mtb H37Rv (ATCC27294); [4]) |
| --- | --- | --- | --- | --- | --- | --- |
| O=C1O[C@H]([C@@H](O)CO)C(O)=C1O [Ascorbic acid, reference compound] | 12.7 µg/mL |  |  |  |  |  |
| CCOC(=O)c1cc2cc(N3CCN(S(=O)(=O)c4ccc([N+](=O)[O-])cc4[N+](=O)[O-])CC3)ccc2o1 [Compound 4a, ethyl 5-(4-(2,4-dintrobenzenesulfonyl)piperazin-1-yl)benzofuran-2-carboxylate] | 15.25 µg/mL | 0.78 µg/mL | 0.78 ± 0.36 µg/mL (≈ 1.55 µM) | > 50 µg/mL | 20.80% |  |
| CCOC(=O)c1cc2cc(N3CCN(C(=O)CNS(=O)(=O)c4ccc([N+](=O)[O-])cc4[N+](=O)[O-])CC3)ccc2o1 [Compound 4b, ethyl 5-(4-(2-(2,4-dinitrophenylsulfonamido)acetyl)piperazin-1-yl)benzofuran-2-carboxylate] | 50.33 µg/mL |  | 3.12 ± 1.47 µg/mL (≈ 5.56 µM) | > 50 µg/mL | 37.41% |  |
| CCOC(=O)c1cc2cc(N3CCN(C(=O)CCCNS(=O)(=O)c4ccc([N+](=O)[O-])cc4[N+](=O)[O-])CC3)ccc2o1 [Compound 4d, ethyl 5-(4-(4-(2,4-dinitrophenylsulfonamido)butanoyl)piperazin-1-yl) benzofuran-2-carboxylate] | 33.50 µg/mL |  | 1.56 ± 0.36 µg/mL (≈ 2.65 µM) | > 50 µg/mL | 35.95% |  |
| CCOC(=O)c1cc2cc(N3CCN(C(=O)C4CCN(S(=O)(=O)c5ccc([N+](=O)[O-])cc5[N+](=O)[O-])CC4)CC3)ccc2o1 [Compound 4e, ethyl 5-(4-(1-((2,4-dinitrophenyl)sulphonyl)piperidine-4-carbonyl)piperazin-1-yl)benzofuran-2-carboxylate] | 45.21 µg/mL |  | 1.56 ± 0.97 µg/mL (≈ 2.53 µM) | > 50 µg/mL | 18.95% |  |
| CCOC(=O)c1cc2cc(N3CCN(C(=O)C4CCCN(S(=O)(=O)c5ccc([N+](=O)[O-])cc5[N+](=O)[O-])C4)CC3)ccc2o1 (stereo not drawn) [Compound 4f, ethyl 5-(4-(1-((2,4-dinitrophenyl)sulphonyl)piperidine-3-carbonyl)piperazin-1-yl)benzofuran-2-carboxylate] | 39.01 µg/mL |  | 1.56 ± 0.73 µg/mL (≈ 2.53 µM) | > 50 µg/mL | 22.75% |  |
| CCOC(=O)c1cc2cc(N3CCN(C(=O)[C@@H]4CCCN4S(=O)(=O)c4ccc([N+](=O)[O-])cc4[N+](=O)[O-])CC3)ccc2o1 [Compound 4g, (S)-ethyl 5-(4-(1-((2,4-dinitrophenyl)sulphonyl)pyrrolidine-2-carbonyl)piperazin-1-yl)benzofuran-2-carboxylate] | 55.25 µg/mL |  | 6.25 µg/mL (≈ 10.4 µM) | > 50 µg/mL | 29.64% |  |
| CCOC(=O)c1cc2cc(N3CCN(C(=O)[C@H]4CCCN4S(=O)(=O)c4ccc([N+](=O)[O-])cc4[N+](=O)[O-])CC3)ccc2o1 [Compound 4h, (R)-ethyl 5-(4-(1-((2,4-dinitrophenyl)sulphonyl)pyrrolidine-2-carbonyl)piperazin-1-yl)benzofuran-2-carboxylate] | 49.75 µg/mL |  | > 25 µg/mL | > 50 µg/mL | 33.08% |  |
| CCOC(=O)c1cc2cc(N3CCN(C(=O)C4CCN(S(=O)(=O)c5ccc([N+](=O)[O-])cc5[N+](=O)[O-])C4)CC3)ccc2o1 (stereo not drawn) [Compound 4i, ethyl 5-(4-(1-((2,4-dinitrophenyl)sulphonyl)pyrrolidine-3-carbonyl)piperazin-1-yl)benzofuran-2-carboxylate] | 52.44 µg/mL |  | 6.25 µg/mL (≈ 10.4 µM) | > 50 µg/mL | 19.38% |  |
| CCOC(=O)c1cc2cc(N3CCN(C(=O)C(C)(C)NS(=O)(=O)c4ccc([N+](=O)[O-])cc4[N+](=O)[O-])CC3)ccc2o1 [Compound 4j, ethyl 5-(4-(2-(2,4-dinitrophenylsulfonamido)-2-methylpropanoyl)piperazin-1-yl)benzofuran-2-carboxylate] | 20.43 µg/mL | 0.78 µg/mL | 0.78 ± 0.48 µg/mL (≈ 1.32 µM) | > 50 µg/mL | 39.28% |  |
| CCOC(=O)c1cc2cc(N3CCN(C(=O)C(NS(=O)(=O)c4ccc([N+](=O)[O-])cc4[N+](=O)[O-])c4ccccc4)CC3)ccc2o1 (stereo not drawn) [Compound 4k, ethyl 5-(4-(2-(2,4-dinitrophenylsulfonamido)-2-phenylacetyl)piperazin-1-yl) benzofuran-2-carboxylate] | 45.87 µg/mL |  | > 25 µg/mL | > 50 µg/mL | 22.55% |  |
| NC(=O)c1cc2cc(N3CCN(S(=O)(=O)c4ccc([N+](=O)[O-])cc4[N+](=O)[O-])CC3)ccc2o1 [Compound 4m, 5-(4-((2,4-dinitrophenyl)sulphonyl)piperazin-1-yl)benzofuran-2-carboxamide] | 45.44 µg/mL |  | 25 µg/mL (≈ 52.6 µM) | > 50 µg/mL | 23.65% |  |
| O=C(Nc1ccccc1)c1cc2cc(N3CCN(S(=O)(=O)c4ccc([N+](=O)[O-])cc4[N+](=O)[O-])CC3)ccc2o1 [Compound 4n, 5-(4-((2,4-dinitrophenyl)sulphonyl)piperazin-1-yl)-N-phenylbenzofuran-2-carboxamide] | 40.64 µg/mL |  | 3.12 ± 1.1 µg/mL (≈ 5.66 µM) | > 50 µg/mL | 27.98% |  |
| O=C(c1cc2cc(N3CCN(S(=O)(=O)c4ccc([N+](=O)[O-])cc4[N+](=O)[O-])CC3)ccc2o1)N1CCCCC1 [Compound 4o, (5-(4-((2,4-dinitrophenyl)sulphonyl)piperazin-1-yl)benzofuran-2-yl) (piperidin-1-yl)methanone] | 19.27 µg/mL | 1.56 µg/mL | 1.56 ± 0.36 µg/mL (≈ 2.87 µM) | > 50 µg/mL | 31.58% |  |
| CN1CCN(C(=O)c2cc3cc(N4CCN(S(=O)(=O)c5ccc([N+](=O)[O-])cc5[N+](=O)[O-])CC4)ccc3o2)CC1 [Compound 4p, (5-(4-((2,4-dinitrophenyl)sulphonyl)piperazin-1-yl)benzofuran-2-yl)(4-methylpiperazin-1-yl) methanone] | 48.66 µg/mL |  | 6.25 µg/mL (≈ 11.2 µM) | > 50 µg/mL | 30.18% |  |
| CC[C@@H](CO)NCCN[C@@H](CC)CO [Ethambutol, reference compound] |  | 1.56 µg/mL |  |  |  | 1.56 ± 0.76 µg/mL (≈ 7.64 µM) |
| NNC(=O)c1ccncc1 [Isoniazid, reference compound] |  | 0.05 µg/mL |  |  |  | 0.05 ± 0.02 µg/mL (≈ 0.365 µM) |
| CO[C@H]1/C=C/O[C@@]2(C)Oc3c(C)c(O)c4c(O)c(c(/C=N/N5CCN(C)CC5)c(O)c4c3C2=O)NC(=O)/C(C)=C\C=C\[C@H](C)[C@H](O)[C@@H](C)[C@@H](O)[C@@H](C)[C@H](OC(C)=O)[C@@H]1C [Rifampicin, reference compound] |  | 0.1 µg/mL |  |  |  | 0.1 ± 0.04 µg/mL (≈ 0.122 µM) |
